Measured values as given in patent US10676485B2, “Macrocyclic MCL-1 inhibitors and methods of use” (AbbVie Inc., priority 2017, dated 2020).
Like-named read-outs stand apart in the source and are kept apart here.

Tests used:
[1] = tested on: AMO-1 human multiple myeloma tumor cell line; assay: AMO-1 cell viability assay (CellTiter-Glo); assay type: cell-based; settings: AMO1, read-out: AMO-1 Viability IC50 (μM), 10% FBS, 24 hours of compound treatment
GST-MCL-1 = GST-MCL-1 (Homo sapiens (Human), UniProt Q07820); assay: TR-FRET MCL-1 binding assay (competition with probe F-Bak)
In short: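 Compounds as 11 three-fold dilutions from 25 μM with GST-MCL-1, F-Bak probe and Tb-anti-His antibody, 2 h at room temperature. TR-FRET at 340 nm excitation, 520/525 nm (F-Bak) and 495/510 nm (Tb) emission. Run without human serum and with 10% HS.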

[2] = tested on: NCI-H929 human multiple myeloma tumor cell line; assay: NCI-H929 cell viability assay (CellTiter-Glo); assay type: cell-based; settings: NCI-H929, read-out: H929 Viability IC50 (μM), 10% FBS, 24 hours of compound treatment
Protocol: In one exemplary set of conditions, NCI-H929 or AMO-1 (ATCC. Manassas, Va.) were plated 4.000 cells per well in 384-well tissue culture plates (Corning. Corning, N.Y.) in a total volume of 25 μL RPMI tissue culture medium supplemented with 10% fetal bovine serum (Sigma-Aldrich, St. Louis, Mo.) and treated with a 3-fold serial dilution of the compounds of interest with a Labcyte Echo from a final concentration of 10 μM to 0.0005 μM. Each concentration was tested in duplicate at least 3 independent times. A luminescent signal proportional to the number of viable cells following 24 hours of compound treatment was determined using the CellTiter-Glo® Luminescent Cell Viability Assay according to the manufacturer's recommendations (Promega Corp., Madison, Wis.). The plates were read in a Perkin Elmer Envision using a Luminescence protocol. To generate dose response curves the data is normalized to percent viability by setting the averages of the staurosporine (10 uM) and DMSO only control wells to 0% and (00)% viability respectively. The IC50 values for the compounds are generated by fitting the normalized data with Accelrys Assay Explorer 3.3 to a sigmoidal curve model using linear regression.

[3] = read-out: MCL-1 Binding Ki (nM, 10% HS), in the presence of 10% HS
[4] = without HS, read-out: MCL-1 Binding Ki

GST-MCL-1, sequence (Q07820 whole entry): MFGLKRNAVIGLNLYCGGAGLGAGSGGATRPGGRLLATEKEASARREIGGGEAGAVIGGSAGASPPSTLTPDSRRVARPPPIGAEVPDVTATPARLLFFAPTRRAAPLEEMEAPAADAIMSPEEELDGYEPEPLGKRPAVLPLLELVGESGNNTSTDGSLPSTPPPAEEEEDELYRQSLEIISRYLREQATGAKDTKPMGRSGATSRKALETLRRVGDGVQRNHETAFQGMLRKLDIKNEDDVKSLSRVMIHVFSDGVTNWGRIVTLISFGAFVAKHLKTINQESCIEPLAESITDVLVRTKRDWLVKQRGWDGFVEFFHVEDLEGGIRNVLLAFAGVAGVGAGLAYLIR

| SMILES | IC50 [1] | Ki (GST-MCL-1; [3]) | Ki (GST-MCL-1; [4]) | IC50 [2] |
| --- | --- | --- | --- | --- |
| Cc1c(Cl)c2c(Cl)c(C)c1-c1c(-c3ccc(F)cc3)sc3ncnc(c13)O[C@@H](C(=O)O)Cc1cc(ccc1OCc1ccnc(C3=CC[C@@](F)(COC[C@H]4COCCO4)CC3)n1)OC[C@@H](CN1CCN(C)CC1)O2 [Example 43, (7R,16R)-19,23-dichloro-10-({2-[(4R)-4-({[(2R)-1,4-dioxan-2-yl]methoxy}methyl)-4-fluorocyclohex-1-en-1-yl]pyrimidin-4-yl}methoxy)-1-(4-fluorophenyl)-20,22-dimethyl-16-[(4-methylpiperazin-1-yl)methyl]-7,8,15,16-tetrahydro-18,21-etheno-13,9-(metheno)-6,14,17-trioxa-2-thia-3,5-diazacyclononadeca[1,2,3-cd]indene-7-carboxylic acid] | 0.346 nM | 0.18 nM | 0.02 nM | 0.000365 µM |
| Cc1c(Cl)c2c(Cl)c(C)c1-c1c(-c3ccc(F)cc3)sc3ncnc(c13)O[C@@H](C(=O)O)Cc1cc(ccc1OCc1ccnc([C@H]3CC[C@H](OCC4COCO4)CC3)n1)OC[C@@H](CN1CCN(C)CC1)O2 (stereo partly drawn) [Example 14, (7R,16R)-19,23-dichloro-10-[(2-{(1r,4r)-4-[(1,3-dioxolan-4-yl)methoxy]cyclohexyl}pyrimidin-4-yl)methoxy]-1-(4-fluorophenyl)-20,22-dimethyl-16-[(4-methylpiperazin-1-yl)methyl]-7,8,15,16-tetrahydro-18,21-etheno-13,9-(metheno)-6,14,17-trioxa-2-thia-3,5-diazacyclononadeca[1,2,3-cd]indene-7-carboxylic acid] | 0.114 nM | 0.09 nM | 0.006 nM | 0.000236 µM |
| Cc1c(Cl)c2c(Cl)c(C)c1-c1c(-c3ccc(F)cc3)sc3ncnc(c13)O[C@@H](C(=O)O)Cc1cc(ccc1OCc1ccnc([C@H]3CC[C@](F)(COC[C@H]4COCCO4)CC3)n1)OC[C@@H](CN1CCN(C)CC1)O2 [Example 39, (7R,16R)-19,23-dichloro-10-({2-[(1S,4s)-4-({[(2R)-1,4-dioxan-2-yl]methoxy}methyl)-4-fluorocyclohexyl]pyrimidin-4-yl}methoxy)-1-(4-fluorophenyl)-20,22-dimethyl-16-[(4-methylpiperazin-1-yl)methyl]-7,8,15,16-tetrahydro-18,21-etheno-13,9-(metheno)-6,14,17-trioxa-2-thia-3,5-diazacyclononadeca[1,2,3-cd]indene-7-carboxylic acid] | 0.235 nM | 0.06 nM | 0.004 nM | 0.000239 µM |
| Cc1c(Cl)c2c(Cl)c(C)c1-c1c(-c3ccc(F)cc3)sc3ncnc(c13)O[C@@H](C(=O)O)Cc1cc(ccc1OCc1ccnc([C@H]3CC[C@H](OC[C@@H]4COCCO4)CC3)n1)OC[C@@H](CN1CCN(C)CC1)O2 [Example 44, (7R,16R)-19,23-dichloro-10-({2-[(1S,4r)-4-{[(2S)-1,4-dioxan-2-yl]methoxy}cyclohexyl]pyrimidin-4-yl}methoxy)-1-(4-fluorophenyl)-20,22-dimethyl-16-[(4-methylpiperazin-1-yl)methyl]-7,8,15,16-tetrahydro-18,21-etheno-13,9-(metheno)-6,14,17-trioxa-2-thia-3,5-diazacyclononadeca[1,2,3-cd]indene-7-carboxylic acid] | 0.268 nM | 0.16 nM | 0.02 nM | 0.000286 µM |
| Cc1c(Cl)c2c(Cl)c(C)c1-c1c(C3=CCCC3)sc3ncnc(c13)O[C@@H](C(=O)O)Cc1cc(ccc1OCc1ccnc([C@H]3CC[C@@](F)(COC[C@@H]4COCCO4)CC3)n1)OC[C@@H](CN1CCN(C)CC1)O2 [Example 37, (7R,16R)-19,23-dichloro-1-(cyclopent-1-en-1-yl)-10-({2-[(1S,4r)-4-({[(2S)-1,4-dioxan-2-yl]methoxy}methyl)-4-fluorocyclohexyl]pyrimidin-4-yl}methoxy)-20,22-dimethyl-16-[(4-methylpiperazin-1-yl)methyl]-7,8,15,16-tetrahydro-18,21-etheno-13,9-(metheno)-6,14,17-trioxa-2-thia-3,5-diazacyclononadeca[1,2,3-cd]indene-7-carboxylic acid] | 0.187 nM | 0.63 nM | 0.051 nM | 0.00053 µM |
| Cc1c2ccc(c1Cl)O[C@H](CN1CCN(C)CC1)COc1ccc(OCc3ccnc(C4COCCO4)n3)c(c1)C[C@H](C(=O)O)Oc1ncnc3sc(-c4ccc(F)cc4)c-2c13 (stereo partly drawn) [Example 4, (7R,16R,21S)-19-chloro-10-{[2-(1,4-dioxan-2-yl)pyrimidin-4-yl]methoxy}-1-(4-fluorophenyl)-20-methyl-16-[(4-methylpiperazin-1-yl)methyl]-7,8,15,16-tetrahydro-18,21-etheno-13,9-(metheno)-6,14,17-trioxa-2-thia-3,5-diazacyclononadeca[1,2,3-cd]indene-7-carboxylic acid] | 2.73 nM | 0.32 nM | 0.055 nM | 0.00572 µM |
| Cc1c(Cl)c2c(Cl)c(C)c1-c1c(-c3ccc(F)cc3)sc3ncnc(c13)O[C@@H](C(=O)O)Cc1cc(ccc1OCc1ccnc(-c3ccc(NC[C@H]4COCCO4)nc3)n1)OC[C@@H](CN1CCN(C)CC1)O2 [Example 36, (7R,16R)-19,23-dichloro-10-({2-[6-({[(2S)-1,4-dioxan-2-yl]methyl}amino)pyridin-3-yl]pyrimidin-4-yl}methoxy)-1-(4-fluorophenyl)-20,22-dimethyl-16-[(4-methylpiperazin-1-yl)methyl]-7,8,15,16-tetrahydro-18,21-etheno-13,9-(metheno)-6,14,17-trioxa-2-thia-3,5-diazacyclononadeca[1,2,3-cd]indene-7-carboxylic acid] | 0.0488 nM | 0.05 nM | 0.001 nM | 0.000183 µM |
| Cc1c(Cl)c2c(Cl)c(C)c1-c1c(-c3ccc(F)cc3)sc3ncnc(c13)O[C@@H](C(=O)O)Cc1cc(ccc1OCc1ccnc(-c3ccc(NC[C@@H]4COCCO4)nc3)n1)OC[C@@H](CN1CCN(C)CC1)O2 [Example 41, (7R,16R)-19,23-dichloro-10-({2-[6-({[(2R)-1,4-dioxan-2-yl]methyl}amino)pyridin-3-yl]pyrimidin-4-yl}methoxy)-1-(4-fluorophenyl)-20,22-dimethyl-16-[(4-methylpiperazin-1-yl)methyl]-7,8,15,16-tetrahydro-18,21-etheno-13,9-(metheno)-6,14,17-trioxa-2-thia-3,5-diazacyclononadeca[1,2,3-cd]indene-7-carboxylic acid] | 0.589 nM | 0.14 nM | 0.009 nM | 0.000595 µM |
| COc1ccccc1-c1nccc(COc2ccc3cc2C[C@H](C(=O)O)Oc2ncnc4sc(C5=COCCO5)c(c24)-c2c(C)c(Cl)c(c(Cl)c2C)O[C@H](CN2CCN(C)CC2)CO3)n1 [Example 27, (7R,16R)-19,23-dichloro-1-(5,6-dihydro-1,4-dioxin-2-yl)-10-{[2-(2-methoxyphenyl)pyrimidin-4-yl]methoxy}-20,22-dimethyl-16-[(4-methylpiperazin-1-yl)methyl]-7,8,15,16-tetrahydro-18,21-etheno-13,9-(metheno)-6,14,17-trioxa-2-thia-3,5-diazacyclononadeca[1,2,3-cd]indene-7-carboxylic acid] | 0.435 nM | 0.02 nM | 0.008 nM | 0.0015 µM |
| Cc1c(Cl)c2c(Cl)c(C)c1-c1c(-c3ccc(F)cc3)sc3ncnc(c13)O[C@@H](C(=O)O)Cc1cc(ccc1OCc1nccc(-c3ccc(OC[C@H]4COCCO4)cc3)n1)OC[C@@H](CN1CCN(C)CC1)O2 [Example 23, (7R,16R)-19,23-dichloro-10-{[4-(4-{[(2R)-1,4-dioxan-2-yl]methoxy}phenyl)pyrimidin-2-yl]methoxy}-1-(4-fluorophenyl)-20,22-dimethyl-16-[(4-methylpiperazin-1-yl)methyl]-7,8,15,16-tetrahydro-18,21-etheno-13,9-(metheno)-6,14,17-trioxa-2-thia-3,5-diazacyclononadeca[1,2,3-cd]indene-7-carboxylic acid] | 3.15 nM | 41 nM | 4.98 nM | 0.00849 µM |
| Cc1c(Cl)c2c(Cl)c(C)c1-c1c(-c3ccc(F)cc3)sc3ncnc(c13)O[C@@H](C(=O)O)Cc1cc(ccc1OCc1ccnc(OC[C@H]3COCCO3)n1)OC[C@@H](CN1CCN(C)CC1)O2 [Example 25, (7R,16R)-19,23-dichloro-10-[(2-{[(2R)-1,4-dioxan-2-yl]methoxy}pyrimidin-4-yl)methoxy]-1-(4-fluorophenyl)-20,22-dimethyl-16-[(4-methylpiperazin-1-yl)methyl]-7,8,15,16-tetrahydro-18,21-etheno-9,13-(metheno)-6,14,17-trioxa-2-thia-3,5-diazacyclononadeca[1,2,3-cd]indene-7-carboxylic acid] | 0.629 nM | 0.19 nM | 0.003 nM | 0.00188 µM |
| Cc1c(Cl)c2c(Cl)c(C)c1-c1c(-c3ccc(F)cc3)sc3ncnc(c13)O[C@@H](C(=O)O)Cc1cc(ccc1OCc1ccnc(-c3ccc(OC[C@@H]4COCCO4)nc3)n1)OC[C@@H](CN1CCN(C)CC1)O2 [Example 6, (7R,16R)-19,23-dichloro-10-{[2-(6-{[(2S)-1,4-dioxan-2-yl]methoxy}pyridin-3-yl)pyrimidin-4-yl]methoxy}-1-(4-fluorophenyl)-20,22-dimethyl-16-[(4-methylpiperazin-1-yl)methyl]-7,8,15,16-tetrahydro-18,21-etheno-13,9-(metheno)-6,14,17-trioxa-2-thia-3,5-diazacyclononadeca[1,2,3-cd]indene-7-carboxylic acid] | 0.135 nM | 6.09 nM | 0.926 nM | 0.000359 µM |
